# Values joined by “and” are separate entries in the source; they are usually repeats but may differ in a detail not shown here. Equal values may be shown once.
# System: anti collagen antibodies induced arthritis (ACAIA)
# Assay: Anti collagen antibodies induced arthritis (ACAIA) in mice, intra-articular treatment: paw thickness, arthritis clinical score, body weight;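 further: mouse arthritis induced by IV anti-collagen mAb on day 0 plus IP LPS on day 4, with body weight, caliper paw thickness and 0-4 paw score tracked against a day 0 baseline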
# Conditions: for Average clinical score per day (untreated): untreated leg
# [1] = BETi1 0.1 mg/kg IA (Group 4), Av
# [2] = BETi1 0.1 mg/kg IA (Group 4), individual animals, 0.1 mg/kg
# [3] = BETi1 1 mg/kg IA (Group 3), individual animals, 1 mg/kg
# [4] = BETi1 10 mg/kg IA (Group 2), Av
# [5] = BETi1 10 mg/kg IA (Group 2), individual animals, 10 mg/kg
smiles,measurement,setting,value
Cn1cc(-c2cccc(O)c2Oc2ccccc2)c2cc[nH]c2c1=O [BETi1],"Weight per day, Day 5",[1],18.6 g
same,"Weight per day, Day 6",[1],18.1 g
same,"Weight per day, Day 7",[1],18.1 g
same,"Weight per day, Day 8",[1],17.9 g
same,"Weight per day, Day 10",[1],18.1 g
same,"Weight per day, Day 12",[1],19.1 g
same,"Weight per day, Baseline",[2],20.2 g and 21 g and 19.7 g and 21.9 g and 20.3 g and 21.5 g and 18.5 g
same,"Weight per day, Day 3",[2],20 g and 21.2 g (2×) and 20.3 g and 22.4 g and 20.6 g and 18.8 g
same,"Weight per day, Day 4",[2],20 g and 21.3 g and 18 g and 21.9 g and 20.4 g and 21.4 g and 19.1 g
same,"Weight per day, Day 5",[2],18.1 g and 19 g and 16.6 g and 20.5 g and 19.4 g (2×) and 17.4 g
same,"Weight per day, Day 6",[2],17.3 g and 18.7 g and 16.5 g and 19.7 g and 18.5 g and 18.9 g and 17.2 g
same,"Weight per day, Day 7",[2],17.8 g and 18.8 g (2×) and 16.8 g and 19.5 g and 18.2 g and 16.7 g
same,"Weight per day, Day 8",[2],17.5 g and 18.4 g (3×) and 16.7 g and 19.5 g and 16.6 g
same,"Weight per day, Day 10",[2],18.2 g and 19 g and 16.8 g (2×) and 19.4 g and 17.7 g and 19.1 g
same,"Weight per day, Day 12",[2],18.8 g and 19.9 g and 17.5 g and 20.7 g and 18.7 g and 20.2 g and 18 g
same,"Weight per day, Baseline","BETi1 1 mg/kg IA (Group 3), Av",20.7 g
same,"Weight per day, Day 3","BETi1 1 mg/kg IA (Group 3), Av",20.7 g
same,"Weight per day, Day 4","BETi1 1 mg/kg IA (Group 3), Av",21 g
same,"Weight per day, Day 5","BETi1 1 mg/kg IA (Group 3), Av",19 g
same,"Weight per day, Day 6","BETi1 1 mg/kg IA (Group 3), Av",18.5 g
same,"Weight per day, Day 7","BETi1 1 mg/kg IA (Group 3), Av",18.6 g
same,"Weight per day, Day 8","BETi1 1 mg/kg IA (Group 3), Av",18.9 g
same,"Weight per day, Day 10","BETi1 1 mg/kg IA (Group 3), Av",19.3 g
same,"Weight per day, Day 12","BETi1 1 mg/kg IA (Group 3), Av",20.1 g
same,"Weight per day, Baseline",[3],20.4 g and 22.5 g and 20.3 g and 19.9 g and 21.5 g and 19.7 g and 20.6 g
same,"Weight per day, Day 3",[3],20.6 g and 22.1 g and 20.8 g and 19.6 g and 21 g and 19.8 g and 20.9 g
same,"Weight per day, Day 4",[3],20.8 g and 22.5 g and 21.1 g and 19.9 g (2×) and 21.7 g and 21 g
same,"Weight per day, Day 5",[3],19.1 g and 20.2 g and 19.2 g (2×) and 17.7 g and 17.9 g and 19.5 g
same,"Weight per day, Day 6",[3],18.7 g and 18.6 g and 18.8 g (2×) and 18 g and 19.3 g and 17.2 g
same,"Weight per day, Day 7",[3],18.3 g and 18.9 g (2×) and 17.8 g and 19.4 g and 17.7 g and 19.2 g
same,"Weight per day, Day 8",[3],18.5 g and 19.8 g and 18.8 g and 17.9 g and 19.3 g and 18.2 g and 19.6 g
same,"Weight per day, Day 10",[3],18.8 g and 21.3 g and 19 g and 18.6 g and 19.3 g and 18.7 g and 19.2 g
same,"Weight per day, Day 12",[3],19.4 g (2×) and 22.5 g and 19.9 g and 19.3 g and 20.1 g (2×)
same,"Weight per day, Baseline",[4],21.3 g
same,"Weight per day, Day 3",[4],21.4 g
same,"Weight per day, Day 4",[4],21.5 g
same,"Weight per day, Day 5",[4],19.6 g
same,"Weight per day, Day 6",[4],19.6 g
same,"Weight per day, Day 7",[4],19.5 g
same,"Weight per day, Day 8",[4],19.2 g
same,"Weight per day, Day 10",[4],19.4 g
same,"Weight per day, Day 12",[4],20.2 g
same,"Weight per day, Baseline",[5],20.2 g and 21.6 g and 20.8 g and 21.7 g and 21.4 g and 22.2 g and 21.3 g
same,"Weight per day, Day 3",[5],20.1 g and 21.5 g (2×) and 21.3 g (2×) and 22 g and 21.8 g
same,"Weight per day, Day 4",[5],20.2 g and 21.4 g (2×) and 22.4 g and 21.6 g and 21.9 g and 21.7 g
same,"Weight per day, Day 5",[5],18.5 g and 20.1 g and 19.3 g and 20.3 g and 19.9 g and 19.4 g
same,"Weight per day, Day 6",[5],18.9 g and 19.8 g and 19.2 g and 19.5 g (2×) and 20.4 g
same,"Weight per day, Day 7",[5],18.7 g and 19.4 g and 19.5 g and 19.6 g (2×) and 20.3 g
same,"Weight per day, Day 8",[5],18.6 g and 19.2 g and 19.6 g and 18.8 g and 20.2 g and 19.1 g
same,"Weight per day, Day 10",[5],18.3 g and 19.2 g and 19.8 g and 19.6 g and 20.5 g and 19.3 g
same,"Weight per day, Day 12",[5],19.3 g and 20.3 g and 20.4 g and 19.9 g and 21.1 g and 20 g
same,Average clinical score per day (untreated),"0.01 mg/kg IA (Group 5), Baseline",0.00 points
same,Average clinical score per day (untreated),"0.01 mg/kg IA (Group 5), Day 3",0.00 points
same,Average clinical score per day (untreated),"0.01 mg/kg IA (Group 5), Day 4",0.00 points
same,Average clinical score per day (untreated),"0.01 mg/kg IA (Group 5), Day 5",0.00 points
same,Average clinical score per day (untreated),"0.01 mg/kg IA (Group 5), Day 6",0.86 points
same,Average clinical score per day (untreated),"0.01 mg/kg IA (Group 5), Day 7",1.57 points
same,Average clinical score per day (untreated),"0.01 mg/kg IA (Group 5), Day 8",1.71 points
same,Average clinical score per day (untreated),"0.01 mg/kg IA (Group 5), Day 10",2.14 points
same,Average clinical score per day (untreated),"0.01 mg/kg IA (Group 5), Day 12",1.43 points
same,Average clinical score per day (untreated),"0.1 mg/kg IA (Group 4), Baseline",0.00 points
same,Average clinical score per day (untreated),"0.1 mg/kg IA (Group 4), Day 3",0.00 points
same,Average clinical score per day (untreated),"0.1 mg/kg IA (Group 4), Day 4",0.00 points
same,Average clinical score per day (untreated),"0.1 mg/kg IA (Group 4), Day 5",0.00 points
same,Average clinical score per day (untreated),"0.1 mg/kg IA (Group 4), Day 6",1.14 points
same,Average clinical score per day (untreated),"0.1 mg/kg IA (Group 4), Day 7",2.00 points
same,Average clinical score per day (untreated),"0.1 mg/kg IA (Group 4), Day 8",2.29 points
same,Average clinical score per day (untreated),"0.1 mg/kg IA (Group 4), Day 10",2.57 points
same,Average clinical score per day (untreated),"0.1 mg/kg IA (Group 4), Day 12",3.00 points
same,Average clinical score per day (untreated),"1 mg/kg IA (Group 3), Baseline",0.00 points
same,Average clinical score per day (untreated),"1 mg/kg IA (Group 3), Day 3",0.00 points
same,Average clinical score per day (untreated),"1 mg/kg IA (Group 3), Day 4",0.00 points
same,Average clinical score per day (untreated),"1 mg/kg IA (Group 3), Day 5",0.00 points
same,Average clinical score per day (untreated),"1 mg/kg IA (Group 3), Day 6",0.71 points
same,Average clinical score per day (untreated),"1 mg/kg IA (Group 3), Day 7",1.43 points
same,Average clinical score per day (untreated),"1 mg/kg IA (Group 3), Day 8",2.43 points
same,Average clinical score per day (untreated),"1 mg/kg IA (Group 3), Day 10",2.00 points
same,Average clinical score per day (untreated),"1 mg/kg IA (Group 3), Day 12",2.43 points
same,Average clinical score per day (untreated),"10 mg/kg IA (Group 2), Baseline",0.00 points
same,Average clinical score per day (untreated),"10 mg/kg IA (Group 2), Day 3",0.00 points
same,Average clinical score per day (untreated),"10 mg/kg IA (Group 2), Day 4",0.00 points
same,Average clinical score per day (untreated),"10 mg/kg IA (Group 2), Day 5",0.00 points
same,Average clinical score per day (untreated),"10 mg/kg IA (Group 2), Day 6",0.83 points
same,Average clinical score per day (untreated),"10 mg/kg IA (Group 2), Day 7",1.83 points
same,Average clinical score per day (untreated),"10 mg/kg IA (Group 2), Day 8",3.00 points
same,Average clinical score per day (untreated),"10 mg/kg IA (Group 2), Day 10",3.00 points
same,Average clinical score per day (untreated),"10 mg/kg IA (Group 2), Day 12",3.33 points

# From US20250339409A1, “USES OF PAN BET INHIBITORS” (VYNE THERAPEUTICS INC., priority 2021, published 2025)
